Molecular target: PI3Kα (Homo sapiens, UniProt P42336)
Assay: cell-free ADP-Glo kinase assay with recombinant PI3Kα and poly-EY substrate
Format: biochemical

Chain of PI3Kα (P42336 whole entry): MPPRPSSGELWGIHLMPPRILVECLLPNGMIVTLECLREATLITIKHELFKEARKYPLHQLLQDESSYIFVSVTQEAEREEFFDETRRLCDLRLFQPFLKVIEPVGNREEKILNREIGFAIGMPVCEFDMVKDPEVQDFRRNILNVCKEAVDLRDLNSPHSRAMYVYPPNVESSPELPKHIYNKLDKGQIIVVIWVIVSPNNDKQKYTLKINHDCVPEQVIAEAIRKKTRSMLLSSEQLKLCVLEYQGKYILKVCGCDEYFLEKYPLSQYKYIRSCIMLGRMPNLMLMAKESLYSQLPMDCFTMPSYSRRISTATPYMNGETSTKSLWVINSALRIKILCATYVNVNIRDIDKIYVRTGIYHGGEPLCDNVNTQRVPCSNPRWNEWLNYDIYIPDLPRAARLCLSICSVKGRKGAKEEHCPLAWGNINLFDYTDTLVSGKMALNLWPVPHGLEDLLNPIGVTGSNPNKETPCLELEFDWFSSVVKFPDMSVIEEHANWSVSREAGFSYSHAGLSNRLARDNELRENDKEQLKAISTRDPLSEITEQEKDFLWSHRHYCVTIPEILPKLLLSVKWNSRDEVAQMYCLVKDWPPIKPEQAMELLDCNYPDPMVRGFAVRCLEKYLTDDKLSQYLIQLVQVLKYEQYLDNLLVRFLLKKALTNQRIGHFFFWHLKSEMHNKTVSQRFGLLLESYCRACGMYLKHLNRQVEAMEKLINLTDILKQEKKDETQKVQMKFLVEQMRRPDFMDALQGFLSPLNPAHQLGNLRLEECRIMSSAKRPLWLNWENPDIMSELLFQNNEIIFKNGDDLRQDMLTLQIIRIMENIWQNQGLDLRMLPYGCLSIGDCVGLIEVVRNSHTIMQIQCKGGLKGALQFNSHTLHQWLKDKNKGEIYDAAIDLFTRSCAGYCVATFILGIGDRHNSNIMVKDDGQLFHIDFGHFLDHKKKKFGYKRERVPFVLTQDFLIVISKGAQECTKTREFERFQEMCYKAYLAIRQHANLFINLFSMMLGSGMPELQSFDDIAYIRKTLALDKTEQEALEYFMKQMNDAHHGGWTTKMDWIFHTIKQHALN
Chain of PI3Kα (P27986 2-724, further chain): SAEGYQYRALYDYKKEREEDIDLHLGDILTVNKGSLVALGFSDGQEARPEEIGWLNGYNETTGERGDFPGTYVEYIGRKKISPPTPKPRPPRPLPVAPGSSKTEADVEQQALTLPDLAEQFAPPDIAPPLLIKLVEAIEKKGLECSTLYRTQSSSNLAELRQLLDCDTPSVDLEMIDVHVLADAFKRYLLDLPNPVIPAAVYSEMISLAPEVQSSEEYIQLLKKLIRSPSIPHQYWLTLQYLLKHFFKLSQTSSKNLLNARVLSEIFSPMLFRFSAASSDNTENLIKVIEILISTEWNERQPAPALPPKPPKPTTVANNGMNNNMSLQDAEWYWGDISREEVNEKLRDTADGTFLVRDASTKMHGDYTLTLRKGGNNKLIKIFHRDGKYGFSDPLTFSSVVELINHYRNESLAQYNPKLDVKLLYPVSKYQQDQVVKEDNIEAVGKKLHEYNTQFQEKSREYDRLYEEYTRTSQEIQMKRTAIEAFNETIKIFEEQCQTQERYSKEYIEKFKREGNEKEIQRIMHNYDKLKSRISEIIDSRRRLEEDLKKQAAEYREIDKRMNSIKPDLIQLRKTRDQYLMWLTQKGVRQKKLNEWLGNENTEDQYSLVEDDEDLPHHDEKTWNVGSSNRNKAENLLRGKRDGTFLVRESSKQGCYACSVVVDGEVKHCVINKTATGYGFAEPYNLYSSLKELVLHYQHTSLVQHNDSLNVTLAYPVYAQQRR

OCCN1CCN(CC/C=C2/c3ccccc3Sc3ccc(C(F)(F)F)cc32)CC1 [flupentixol]
IC50: 127 ± 5.87 nM
